Results published in patent US6395876B1 (Medical College of Georgia Research Institute, Inc., priority 1997, dated 2002).
“And” between values parts separate entries of the source, which are not always exact repeats. Equal entries are not always repeated. “Also recorded” adds a separate entry of the source. Where two headings read alike, the source gives them in different places.

How the values were obtained:
system L [1] = conditions: read-out: reported Km of system L for tryptophan; reported affinity; cited from earlier work
system L [2] = test: Competition of unlabeled tryptophan for uptake of radiolabeled leucine or phenylalanine, macrophages; assay type: cell-based, human; conditions: labeled leucine or phenylalanine 125 nM
Source text: (§1) For competitive inhibition studies, the Ki value for each competitor was estimated by fitting the measured inhibition curve to the formula in Equation 1 (Cheng and Prusoff 1973, Biochem. Pharmacol. 22, 3099-3108). [formula]
(§2) where [S] is the concentration of labeled substrate, [I] is the concentration of unlabeled inhibitor, Vi is the observed rate of uptake in the presence of inhibitor, Ki is the putative affinity constant of the inhibitor for the transporter, and Km and Vmax have their customary meanings.

[3] = system: high affinity tryptophan transporter
Description: Human peripheral blood monocytes were isolated from healthy volunteer donors by leukocytapheresis and counterflow centrifugal elutriation, following appropriate informed consent under a protocol approved by our Institutional Review Board.
Single cell suspensions were obtained by treating macrophage monolayers with 2 mM EDTA in Hanks balanced salt solution for 15 minutes at room temperature. Cells were washed twice in Tris-choline buffer (150 mM choline chloride, 10 mM tris, pH 7.4), suspended in Tris-choline at between one and 2×10^6 cells/ml, and 100 μl/well added to 96 well microtiter plates. […] Nonspecific binding of radioactivity to the filters (based on wells without cells) was typically less than 10% of the total signal, and was subtracted from each data point. […] In all assays, the uptake rate (V) was normalized per 1×10^6 cells (expressed as pmol 10^6 cells^−1. 10 min^−1). […]
Uptake kinetics were analyzed using an Eadie-Hofstee transformation (V/[S] vs. V) to identify linear concentration ranges for each transporter. Data from these two ranges were then analyzed separately using double-reciprocal (Lineweaver-Burk, 1/[S] vs. 1/V) plots to determine Km and Vmax. […] Kinetic parameters were calculated on a minimum of 4-6 points, and were considered reliable if the correlation coefficient of the regression line was greater than 0.95. […]

[4] = target: high affinity tryptophan transporter; test: Competition of unlabeled substrates with radiolabeled tryptophan uptake, high-affinity system, macrophages; assay type: cell-based, human
Description: Uptake measurements. Single cell suspensions were obtained by treating macrophage monolayers with 2 mM EDTA in Hanks balanced salt solution for 15 minutes at room temperature. Cells were washed twice in Tris-choline buffer (150 mM choline chloride, 10 mM tris, pH 7.4), suspended in Tris-choline at between one and 2×10^6 cells/ml, and 100 μl/well added to 96 well microtiter plates. Titrations of radiolabeled amino acids were then transferred to the assay plate and uptake allowed to proceed for 10 minutes (the linear range). At the end of the assay period, wells were harvested simultaneously onto glass-fiber filters and washed vigorously for 30 seconds with phosphate buffered saline solution using a Tomtec 96 well parallel harvester. Nonspecific binding of radioactivity to the filters (based on wells without cells) was typically less than 10% of the total signal, and was subtracted from each data point. All assays were performed in triplicate; where error bars are not shown the SD between replicates was less than 10%. In all assays, the uptake rate (V) was normalized per 1×10^6 cells (expressed as pmol 10^6 cells^−1. 10 min^−1). Normalization to milligrams protein was considered less informative because protein content can change markedly during macrophage differentiation, independently of other functional attributes.

[5] = system: monocyte derived macrophages; test: Total tryptophan uptake in monocyte-derived macrophages (sodium and temperature dependence); assay type: cell-based, human
Description: The majority of tryptophan uptake is sodium-independent. Uptake in the absence of sodium was 86±6% of uptake in saline, n=4 Therefore all subsequent assays were performed in the absence of sodium.

system L [6] = test: Radiolabeled amino acid uptake saturation kinetics, lower-affinity system, macrophages; assay type: cell-based, human; conditions: for Km: read-out: Km of low affinity transporter (system L)
Source text: Monocyte isolation and culture.
Analysis of saturation kinetics.

system L [7] = test: Competition of unlabeled substrates with radiolabeled tryptophan uptake, system L component, macrophages; assay type: cell-based, human; conditions: for Ki: read-out: Ki (fit to Equation 1, single-system competitive model)
Source text: as §1, §2

[8] = read-out: IC50 for inhibition of radiolabeled tryptophan uptake, radiolabeled tryptophan 125 nM
[9] = unlabeled competitor 4 μM, radiolabeled tryptophan 125 nM
[10] = unlabeled competitor vs radiolabeled tryptophan (125 or 250 nM)
[11] = uptake of the radiolabeled amino acid, high substrate concentrations (8-64 μM)

Q: For `N[C@@H](Cc1c[nH]c2ccccc12)C(=O)O` [tryptophan], which Km (system L [1]) is on record?
A: 8 to 30 µM

Q: What about the “high-affinity inhibition of phenylalanine or leucine uptake” value (system L [2]) of the same molecule?
A: no detectable

Q: What about the Ki (system L [2]; read-out: Ki of tryptophan versus labeled leucine or phenylalanine uptake) of the same molecule?
A: 30 µM

Q: And the Km [3]?
A: 0.29 ± 0.16 µM

Q: And the “calculated uptake with the selective high-affinity system present” value [3]?
A: 70 fmol 10^6 cells^−1. 10 min^−1

Q: What about the Ki ([4]; radiolabeled tryptophan 125 nM, read-out: Ki (fit to Equation 1, single-system model)) of the same molecule?
A: 0.36 µM

Q: What about the IC50 [4, 8] of the same molecule?
A: 0.36 µM

Q: What about the “effect of 4 μM unlabeled competitor on tryptophan uptake” value (“effect of 4 μM unlabeled competitor” for short) [4, 9] of the same molecule?
A: markedly inhibited

Q: What about the “reduction of the rate of tryptophan accumulation at 0° C.” value ([5]; 0° C. vs 25° C., up to 30 min) of the same molecule?
A: 90%

Q: And the “uptake in the absence of sodium relative to uptake in saline” value ([5]; radiolabeled tryptophan 125 nM, choline chloride vs 150 mM NaCl)?
A: 86% and 86±6%

Q: And the “calculated uptake via system L alone” value (system L [6]; Equation 1, 50 nM tryptophan, 1 mM total other competing amino acids)?
A: 1.5 fmol 10^6 cells^−1. 10 min^−1

Q: And the “Vmax, system L component” value (system L [6]; after macrophage differentiation)?
A: 27±4 pmol 10^6 cells^−1. 10 min^−1

Q: What about the “Vmax, system L component” value (system L [6]; before macrophage differentiation) of the same molecule?
A: 14±8 pmol 10^6 cells^−1. 10 min^−1

Q: What about the Km (system L [6]) of the same molecule?
A: 27 µM and 30 µM and 20 to 30 µM

Q: Which “effect of 4 μM unlabeled competitor” value [4, 9] does the source give for `N[C@@H](Cc1c[nH]cn1)C(=O)O` [HIS] here?
A: little impact

Q: With `CC(C)[C@H](N)C(=O)O` [VAL] as the molecule, how does the “effect of 4 μM unlabeled competitor” value [4, 9] read?
A: little impact

Q: Which “competition with tryptophan for the high-affinity system” value (“competition with tryptophan” below) [4, 10] does the source give for `NCCc1c[nH]c2ccc(O)cc12` [serotonin] here?
A: did not compete

Q: Which results are given for `N[C@@H](Cc1c[nH]c2ccc(O)cc12)C(=O)O` [5-hydroxy tryptophan]?
A: competition with tryptophan for the high-affinity system [4, 10]: did not compete; competition with tryptophan for the high-affinity system ([4]; unlabeled competitor vs radiolabeled tryptophan (125 or 250 nM), listed as 5-hydroxy derivative of tryptophan): failed to compete

Q: For `CC(=O)N[C@@H](Cc1c[nH]c2ccccc12)C(=O)O` [N-acetyl tryptophan], which “competition with tryptophan” value [4, 10] is on record?
A: did not compete

Q: Which “effect of 4 μM unlabeled competitor” value [4, 9] does the source give for `CC[C@H](C)[C@H](N)C(=O)O` [ILE] here?
A: little impact

Q: Which “competition with tryptophan” value [4, 10] does the source give for `Cn1cc(C[C@H](N)C(=O)O)c2ccccc21` [1-methyl tryptophan] here?
A: no competition

Q: What does the source list for `NC1(C(=O)O)CC2CCC1C2` (centres unmarked) [BCH, 2-aminobicyclo(2,2,1)-hepatane-2-carboxylic acid]?
A: mode of inhibition of tryptophan uptake, system L range (system L [7]; greater than 8 μM tryptophan, 500 μM unlabeled BCH): competitive inhibitor; also recorded: competitively inhibits; IC50 of BCH relative to IC50 of tryptophan (system L [7]; inhibition of tryptophan transport, radiolabeled tryptophan 125 nM): approximately 100 fold; inhibition of tryptophan transport by 8 mM unlabeled substrate (system L [7]; radiolabeled tryptophan 125 nM, unlabeled substrates 8 mM each): inhibited; Ki (system L [7]; radiolabeled tryptophan 125 nM): 37 µM; IC50 (system L [7]; [8]): 37 µM; mode of inhibition of tryptophan uptake, high-affinity range ([4]; less than 1 μM tryptophan, 500 μM unlabeled BCH): strictly non-competitive; also recorded: weak non-competitive inhibitor; IC50 ([4]; saturation kinetics of tryptophan (<1 μM) with or without 500 μM BCH, read-out: IC50 for interaction with the high-affinity system): > 500 µM; effect of 4 μM unlabeled competitor on tryptophan uptake [4, 9]: minimal effect; also recorded: little impact; competition with tryptophan for the high-affinity system [4, 10]: no evidence of competition; also recorded: did not compete; also recorded: not able to compete

Q: With `NCCCC[C@H](N)C(=O)O` [LYS] as the molecule, how does the “effect of 4 μM unlabeled competitor” value [4, 9] read?
A: little impact

Q: With `N=C(N)NCCC[C@H](N)C(=O)O` [ARG] as the molecule, how does the “effect of 4 μM unlabeled competitor” value [4] read?
A: little impact

Q: Which “effect of 4 μM unlabeled competitor” value [4, 9] does the source give for `C[C@@H](O)[C@H](N)C(=O)O` [THR] here?
A: little impact

Q: For `N[C@@H](Cc1ccc(O)cc1)C(=O)O` [TYR, tyrosine], which “effect of 4 μM unlabeled competitor” value [4, 9] is on record?
A: little impact

Q: With `N[C@H](Cc1c[nH]c2ccccc12)C(=O)O` [D-tryptophan] as the molecule, how does the “competition with tryptophan” value [4] read?
A: did not compete

Q: For `N[C@@H](Cc1ccccc1)C(=O)O` [phenylalanine], which Ki (system L [7]; radiolabeled tryptophan 125 nM) is on record?
A: ~10 µM

Q: And the “effect of 4 μM unlabeled competitor” value [4, 9]?
A: little impact

Q: And the “competition with tryptophan” value [4, 10]?
A: do not compete; also recorded: no detectable competition

Q: What about the Km (system L [6]; [11]) of the same molecule?
A: 29 ± 2 µM

Q: What does the source list for `CC(C)C[C@H](N)C(=O)O` [leucine]?
A: effect of 4 μM unlabeled competitor on tryptophan uptake [4, 9]: little impact; competition with tryptophan for the high-affinity system [4, 10]: do not compete; Km (system L [6]; [11]): 26 ± 6 µM

Q: Which “effect of 4 μM unlabeled competitor” value [4, 9] does the source give for `CSCC[C@H](N)C(=O)O` [MET] here?
A: little impact
